Test results from ChEMBL document CHEMBL4732045, “Amide Bond Bioisosteres: Strategies, Synthesis, and Successes” (J Med Chem, 2020).
Square brackets hold non-standard residues; d marks the D form. Peptide text beside a SMILES is read from it. PhLac = O=C(O)[C@@H](O)Cc1ccccc1

Key:
[1] = molecular target: T1, Human immunodeficiency virus type 1 protease (Human immunodeficiency virus 1, UniProt Q72874); assay: Inhibition of HIV1 protease
[2] = molecular target: D(2) dopamine receptor (Bos taurus) (UniProt P20288); assay: Modulation of [3H]Spiroperidol/N-Propylnorapomorphine binding to dopamine D2 receptor in bovine striatal membranes incubated for 1 hr in presence of Gpp(NH)p by Cheng-Prusoff analysis; assay type: cell membranes; settings: Striatum, Membrane, filed as modulator
[3] = molecular target: D(2) dopamine receptor (Bos taurus) (UniProt P20288); assay: Modulation of [3H]Spiroperidol/N-Propylnorapomorphine binding to dopamine D2 receptor in bovine striatal membranes incubated for 1 hr by Cheng-Prusoff analysis; assay type: cell membranes; settings: Striatum, Membrane, filed as modulator
[4] = molecular target: T1, Human immunodeficiency virus type 1 protease; assay: Inhibition of HIV-1 protease
PC-3 = assay: Cytotoxicity against human PC-3 cells incubated for 96 hrs by MTT assay; assay type: functional, cell-based; settings: PC-3, 96 h
CAKI-2 = assay: Cytotoxicity against human Caki-2 cells incubated for 96 hrs by MTT assay; assay type: functional, cell-based; settings: CAKI-2, 96 h
HL-60 = assay: Cytotoxicity against human HL-60 cells incubated for 96 hrs by MTT assay; assay type: functional, cell-based; settings: HL-60, 96 h
A549 = assay: Cytotoxicity against human A549 cells incubated for 96 hrs by MTT assay; assay type: functional, cell-based; settings: A549, 96 h
HT-29 = assay: Cytotoxicity against human HT-29 cells incubated for 96 hrs by MTT assay; assay type: functional, cell-based; settings: HT-29, 96 h
[5] = Growth inhibition of BAEC incubated for 3 days by Coulter counter method; settings: Bos taurus, 72 h
HeLa = assay: Antiproliferative activity against human HeLa cells incubated for 4 days by Coulter counter method; assay type: functional, cell-based; settings: 96 h
L1210 = assay: Antiproliferative activity against mouse L1210 cells incubated for 48 hrs by Coulter counter method; assay type: functional, cell-based; settings: L1210, 48 h
CCRF-CEM = assay: Antiproliferative activity against human CEM cells incubated for 96 hrs by Coulter counter method; assay type: functional, cell-based
HMEC-1 = assay: Growth inhibition of HMEC-1 incubated for 4 days by Coulter counter method; assay type: cell-based; settings: Homo sapiens, HMEC-1, 96 h
[6] = molecular target: Delta-type opioid receptor (Mus musculus, UniProt P32300); assay: Inhibition of [3H]-Deltorphin 2 binding to mouse delta opioid receptor expressed in rat GH3 cell membranes by Cheng-Prusoff analysis; design: species or system Cell membrane
[7] = Inhibition of HIV2 protease; design: species or system Human immunodeficiency virus 2
[8] = system: Human immunodeficiency virus 1; assay: Antiviral activity against HIV1 3b isolate infected in human MT4 cells assessed as blockade of viral spread pretreated for 24 hrs followed by viral infection and subsequently treated with compound every 2 to 3 days post infection by ELISA; assay type: functional; settings: Human immunodeficiency virus 1, 3b isolate, read-out: CIC95
[9] = system: Poly(dG-dC)oligonucleotide; assay: Binding affinity to poly (dG-dC) (unknown origin) by ethidium displacement assay; assay type: nucleic-acid assay
[10] = system: Poly(dA-dT)oligonucleotide; assay: Binding affinity to poly (dA-dT) (unknown origin) by ethidium displacement assay; assay type: nucleic-acid assay
Mus musculus [11] = assay: Immunosuppressive activity in B6D2F1 mouse model of graft-versus-host disease assessed as mean survival days at 1 mg/kg, ip administered for day 1 to day 10 (day 6 omitted) and measured at day 60; assay type: functional; settings: time 60 day
Mus musculus [12] = assay: Immunosuppressive activity in B6D2F1 mouse model of graft-versus-host disease assessed as mean survival days at 3 mg/kg, ip administered for day 1 to day 10 (day 6 omitted) and measured at day 60; assay type: functional; settings: time 60 day
Rattus norvegicus = assay: Immunosuppressive activity in Lewis rat model of Heart Allotransplantation assessed as mean survival days at 6 mg/kg, ip administered for 10 days by Manntel-Haenszel test; assay type: functional; settings: time 10 day
[13] = Inhibition of ACAT in cholesterol-fed New Zealand rabbit intestional microsomes using [1-14C]oleoyl-CoA as substrate preincubated for 5 mins followed by substrate addition and measured after 5 mins by liquid scintillation counting method; design: species or system Oryctolagus cuniculus, Intestine, Microsome
Cannabinoid receptor 1 = Cannabinoid receptor 1 (Homo sapiens, UniProt P21554); assay: Displacement of [3H]CP-55940 from human CB1 receptor expressed in HEK cells by competitive binding assay; assay type: cell-based
MDA-MB-231 = assay: Antiproliferative activity against human MDA-MB-231 cells; assay type: functional, cell-based
[14] = Selectivity index, ratio of Ki for human CB1 receptor expressed in HEK cells to Ki for human CB2 receptor expressed in HEK cells
Cannabinoid receptor 2 = Cannabinoid receptor 2 (Homo sapiens, UniProt P34972); assay: Displacement of [3H]CP-55940 from human CB2 receptor expressed in HEK cells by competitive binding assay; assay type: cell-based
Interstitial collagenase = Interstitial collagenase (Homo sapiens, UniProt P03956); assay: Inhibition of PMA-induced human skin fibroblast derived MMP1 by fluorometric assay; assay type: tissue-based
Stromelysin-1 = Stromelysin-1 (Homo sapiens, UniProt P08254); assay: Inhibition of human MMP3 by fluorometric assay
Matrilysin = Matrilysin (Homo sapiens, UniProt P09237); assay: Inhibition of human MMP7 by fluorometric assay
[15] = Oral bioavailability in monkey at 10 mg/kg; assay type: ADME, organism-based, Macaca mulatta; settings: rhesus monkey, in vivo
[16] = molecular target: 72 kDa type IV collagenase (Homo sapiens, UniProt P08253); assay: Inhibition of TNF-induced MMP2 isolated from human HT-1080 cell medium by fluorometric assay; assay type: tissue-based
[17] = Half life in monkey at 10 mg/kg, po; assay type: ADME, organism-based, Macaca mulatta; settings: rhesus monkey, in vivo
Integrin alpha-4/beta-1 = Integrin alpha-4/beta-1 (Homo sapiens, UniProt P05556+P13612); assay: Displacement of 125I-VCAM-Ig from VLA4 in human Jurkat cells incubated for 30 mins by scintillation counting method; assay type: cell-based
Sequence of Integrin alpha-4/beta-1 (P05556 whole entry): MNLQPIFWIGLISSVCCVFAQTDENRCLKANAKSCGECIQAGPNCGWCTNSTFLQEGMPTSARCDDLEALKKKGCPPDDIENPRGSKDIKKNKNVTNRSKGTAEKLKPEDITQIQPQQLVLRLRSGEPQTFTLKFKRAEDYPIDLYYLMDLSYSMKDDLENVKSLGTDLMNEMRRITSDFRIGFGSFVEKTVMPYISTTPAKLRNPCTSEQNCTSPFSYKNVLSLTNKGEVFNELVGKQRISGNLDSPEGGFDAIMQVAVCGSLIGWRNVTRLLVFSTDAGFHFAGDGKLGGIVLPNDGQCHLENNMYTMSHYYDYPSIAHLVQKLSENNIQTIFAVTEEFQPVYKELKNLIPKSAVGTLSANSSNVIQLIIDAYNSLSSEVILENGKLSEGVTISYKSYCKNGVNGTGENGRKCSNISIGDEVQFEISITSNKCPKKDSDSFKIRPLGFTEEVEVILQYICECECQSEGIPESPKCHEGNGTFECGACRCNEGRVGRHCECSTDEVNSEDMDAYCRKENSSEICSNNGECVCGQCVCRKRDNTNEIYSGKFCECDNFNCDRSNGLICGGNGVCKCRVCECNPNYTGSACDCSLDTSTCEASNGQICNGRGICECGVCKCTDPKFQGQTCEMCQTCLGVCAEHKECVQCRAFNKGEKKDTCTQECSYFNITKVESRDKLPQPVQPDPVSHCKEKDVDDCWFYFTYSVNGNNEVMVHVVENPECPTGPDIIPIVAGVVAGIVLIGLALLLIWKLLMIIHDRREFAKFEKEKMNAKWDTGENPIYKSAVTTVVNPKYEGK
Sequence of Integrin alpha-4/beta-1 (P13612 whole entry): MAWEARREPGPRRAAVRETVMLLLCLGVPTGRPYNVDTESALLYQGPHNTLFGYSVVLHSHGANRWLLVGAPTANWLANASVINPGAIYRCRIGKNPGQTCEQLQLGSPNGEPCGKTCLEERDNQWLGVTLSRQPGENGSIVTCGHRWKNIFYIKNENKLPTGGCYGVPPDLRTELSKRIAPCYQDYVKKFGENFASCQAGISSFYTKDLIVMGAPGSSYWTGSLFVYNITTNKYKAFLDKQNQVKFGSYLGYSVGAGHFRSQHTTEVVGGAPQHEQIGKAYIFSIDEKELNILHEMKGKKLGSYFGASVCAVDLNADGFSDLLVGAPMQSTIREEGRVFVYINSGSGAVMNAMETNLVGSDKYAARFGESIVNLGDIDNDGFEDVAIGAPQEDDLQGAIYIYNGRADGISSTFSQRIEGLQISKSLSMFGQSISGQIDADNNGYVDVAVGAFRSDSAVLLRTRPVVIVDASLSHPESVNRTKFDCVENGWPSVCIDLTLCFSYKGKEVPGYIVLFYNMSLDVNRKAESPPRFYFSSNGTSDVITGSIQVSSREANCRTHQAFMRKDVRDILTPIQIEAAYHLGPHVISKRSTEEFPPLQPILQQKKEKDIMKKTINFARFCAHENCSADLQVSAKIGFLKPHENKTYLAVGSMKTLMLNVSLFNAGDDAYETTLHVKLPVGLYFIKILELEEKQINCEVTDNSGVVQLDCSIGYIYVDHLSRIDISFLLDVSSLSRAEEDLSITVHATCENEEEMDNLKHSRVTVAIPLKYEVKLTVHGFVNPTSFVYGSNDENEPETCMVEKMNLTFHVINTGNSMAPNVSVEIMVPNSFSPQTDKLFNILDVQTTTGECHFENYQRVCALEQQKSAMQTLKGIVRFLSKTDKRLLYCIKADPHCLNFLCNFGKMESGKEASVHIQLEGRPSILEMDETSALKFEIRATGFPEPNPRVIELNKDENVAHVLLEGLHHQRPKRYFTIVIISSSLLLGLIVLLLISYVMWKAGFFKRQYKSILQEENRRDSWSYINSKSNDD

Sequence of D(2) dopamine receptor (Bos taurus) (P20288 whole entry): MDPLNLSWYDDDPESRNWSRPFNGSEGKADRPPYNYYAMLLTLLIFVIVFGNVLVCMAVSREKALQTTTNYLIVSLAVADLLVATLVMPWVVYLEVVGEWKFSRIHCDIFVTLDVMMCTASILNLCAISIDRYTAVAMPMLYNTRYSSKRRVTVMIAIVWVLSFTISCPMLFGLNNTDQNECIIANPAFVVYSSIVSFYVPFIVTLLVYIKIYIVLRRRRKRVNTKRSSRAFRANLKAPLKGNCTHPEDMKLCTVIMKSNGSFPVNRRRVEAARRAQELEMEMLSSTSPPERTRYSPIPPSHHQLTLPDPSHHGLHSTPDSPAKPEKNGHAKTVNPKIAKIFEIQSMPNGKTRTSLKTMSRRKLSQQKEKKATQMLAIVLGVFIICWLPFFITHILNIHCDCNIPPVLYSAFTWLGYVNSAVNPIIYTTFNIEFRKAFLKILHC
Sequence of Delta-type opioid receptor (P32300 whole entry): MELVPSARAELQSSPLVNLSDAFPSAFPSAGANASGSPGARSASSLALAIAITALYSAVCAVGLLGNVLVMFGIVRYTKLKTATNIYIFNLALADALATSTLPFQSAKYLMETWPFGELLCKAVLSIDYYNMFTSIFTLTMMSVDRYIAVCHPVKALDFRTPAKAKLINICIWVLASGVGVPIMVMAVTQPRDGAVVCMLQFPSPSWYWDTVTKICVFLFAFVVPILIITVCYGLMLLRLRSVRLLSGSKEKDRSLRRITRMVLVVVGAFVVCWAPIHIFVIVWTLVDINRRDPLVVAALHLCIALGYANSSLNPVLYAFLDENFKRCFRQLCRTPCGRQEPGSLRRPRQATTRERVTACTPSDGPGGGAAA
Sequence of Cannabinoid receptor 1 (P21554 whole entry): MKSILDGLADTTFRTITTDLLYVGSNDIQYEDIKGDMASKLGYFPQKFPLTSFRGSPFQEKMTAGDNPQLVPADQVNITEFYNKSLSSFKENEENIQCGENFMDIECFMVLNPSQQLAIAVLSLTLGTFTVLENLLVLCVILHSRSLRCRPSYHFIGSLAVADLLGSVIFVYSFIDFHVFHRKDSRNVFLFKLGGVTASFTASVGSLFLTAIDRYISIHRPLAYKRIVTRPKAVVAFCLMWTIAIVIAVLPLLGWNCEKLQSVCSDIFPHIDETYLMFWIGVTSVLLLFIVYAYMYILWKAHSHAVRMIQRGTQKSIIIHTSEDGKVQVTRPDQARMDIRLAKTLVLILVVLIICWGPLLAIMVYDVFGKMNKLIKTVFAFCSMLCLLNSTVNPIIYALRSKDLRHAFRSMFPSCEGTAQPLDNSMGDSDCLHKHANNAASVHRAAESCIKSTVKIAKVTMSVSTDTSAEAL
Sequence of Cannabinoid receptor 2 (P34972 whole entry): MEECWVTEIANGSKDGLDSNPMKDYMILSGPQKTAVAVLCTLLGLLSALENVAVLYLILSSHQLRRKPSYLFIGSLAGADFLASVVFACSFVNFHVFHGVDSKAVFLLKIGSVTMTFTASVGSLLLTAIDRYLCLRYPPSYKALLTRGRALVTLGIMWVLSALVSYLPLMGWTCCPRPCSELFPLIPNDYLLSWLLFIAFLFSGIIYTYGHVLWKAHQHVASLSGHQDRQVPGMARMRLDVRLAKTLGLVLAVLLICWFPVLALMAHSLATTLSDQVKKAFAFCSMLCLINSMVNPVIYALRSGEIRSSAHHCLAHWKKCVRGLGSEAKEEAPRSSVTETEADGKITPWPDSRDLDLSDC
Sequence of Interstitial collagenase (P03956 whole entry): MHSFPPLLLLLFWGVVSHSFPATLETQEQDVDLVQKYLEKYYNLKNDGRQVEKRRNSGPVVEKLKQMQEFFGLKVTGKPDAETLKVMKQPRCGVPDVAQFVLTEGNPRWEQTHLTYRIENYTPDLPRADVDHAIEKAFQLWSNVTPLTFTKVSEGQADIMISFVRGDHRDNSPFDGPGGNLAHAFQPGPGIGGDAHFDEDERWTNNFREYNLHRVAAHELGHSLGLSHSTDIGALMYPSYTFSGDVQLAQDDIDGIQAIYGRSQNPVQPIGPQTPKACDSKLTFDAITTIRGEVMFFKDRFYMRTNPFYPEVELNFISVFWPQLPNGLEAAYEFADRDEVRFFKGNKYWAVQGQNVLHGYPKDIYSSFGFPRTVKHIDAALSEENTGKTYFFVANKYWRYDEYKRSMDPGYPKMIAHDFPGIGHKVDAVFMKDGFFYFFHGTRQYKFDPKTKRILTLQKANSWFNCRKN
Sequence of Stromelysin-1 (P08254 whole entry): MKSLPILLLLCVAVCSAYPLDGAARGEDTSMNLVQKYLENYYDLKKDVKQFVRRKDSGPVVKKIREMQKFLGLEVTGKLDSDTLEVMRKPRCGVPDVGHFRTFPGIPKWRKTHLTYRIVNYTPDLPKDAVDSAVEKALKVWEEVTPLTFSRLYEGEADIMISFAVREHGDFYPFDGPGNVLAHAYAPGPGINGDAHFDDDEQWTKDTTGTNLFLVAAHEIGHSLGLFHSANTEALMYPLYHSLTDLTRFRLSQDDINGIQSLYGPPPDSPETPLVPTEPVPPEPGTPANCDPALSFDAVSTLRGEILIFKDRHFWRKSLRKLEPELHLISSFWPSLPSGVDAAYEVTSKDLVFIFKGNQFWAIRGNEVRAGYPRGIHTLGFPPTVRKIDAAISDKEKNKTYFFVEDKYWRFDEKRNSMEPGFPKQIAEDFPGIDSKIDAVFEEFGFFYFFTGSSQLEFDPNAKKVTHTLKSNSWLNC
Sequence of Matrilysin (P09237 whole entry): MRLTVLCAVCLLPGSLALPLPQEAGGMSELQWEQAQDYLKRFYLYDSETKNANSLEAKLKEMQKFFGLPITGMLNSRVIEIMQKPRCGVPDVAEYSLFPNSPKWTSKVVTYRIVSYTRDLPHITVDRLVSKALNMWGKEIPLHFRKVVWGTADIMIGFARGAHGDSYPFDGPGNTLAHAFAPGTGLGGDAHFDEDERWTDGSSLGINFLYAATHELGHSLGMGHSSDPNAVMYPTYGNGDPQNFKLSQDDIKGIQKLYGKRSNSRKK

CC(C)(C)NC(=O)[C@@H]1C[C@@H]2CCCC[C@@H]2CN1C[C@@H](O)[C@H](Cc1ccccc1)NC(=O)OC(C)(C)C
IC50 [1]: ≥ 3 µM

CC(C)C[C@H](NC[C@@H]1CCCN1)C(=O)NCC(N)=O
KiH [2]: 0.13 nM
KiL [2]: 60 nM
KiH [3]: 0.09 nM
KiL [3]: 73.2 nM

CC(C)C[C@@H](C(=O)NCC(N)=O)N1CC(=O)N2CCC[C@H]2C1=O
KiH [2]: 0.12 nM
KiL [2]: 172 nM
KiH [3]: 0.08 nM
KiL [3]: 120 nM

CC(C)(C)NS(=O)(=O)CC[C@@H]1O[C@@H]1[C@H](Cc1ccccc1)NC(=O)[C@@H](NC(=O)OCc1ccccc1)C(C)(C)S(C)(=O)=O
IC50 [4]: 0.0202 µM

CCCCCCCCCCCCNC(=O)N[C@@H](CO)[C@H](O)c1ccc([N+](=O)[O-])cc1
IC50 (PC-3): 36 µM
IC50 (CAKI-2): 80 µM
IC50 (HL-60): 30 µM
IC50 (A549): 60 µM
IC50 (HT-29): 55 µM

CS(=O)(=O)c1ccc(C(=O)Nc2ccc(Cl)c(-c3ccccn3)c2)c(Cl)c1 [VISMODEGIB]
IC50 [5]: 50 µM
IC50 (HeLa): 64 µM
IC50 (L1210): 49 µM
IC50 (CCRF-CEM): 58 µM
IC50 (HMEC-1): 41 µM

CC(C)C[C@H](NC(=O)[C@H](Cc1ccccc1)N/C=C/NC(=O)CNC(=O)[C@@H](N)Cc1ccc(O)cc1)C(=O)O
Ki [6]: 0.587 µM

CC(C)(C)NC(=O)[C@@H]1C[C@@H]2CCCC[C@@H]2CN1C[C@@H](O)[C@H](Cc1ccccc1)NC(=O)[C@H](CC(N)=O)NC(=O)c1ccc2ccccc2n1
IC50 [7]: 0.0005 µM
IC95 [8]: 0.022 µM

Cn1cc(NC(=O)c2cc(NC(=O)c3cc(NC=O)cn3C)cn2C)cc1C(=O)NCCC(=N)N
Kapp [9]: 1.3 10^5/M
Kapp [10]: 345 10^5/M

CC(C)C(NC(=O)C[C@@H]1O[C@@H]1[C@H](Cc1ccccc1)NC(=O)[C@H](CC(N)=O)NC(=O)c1ccc2ccccc2n1)C(C)C
IC50 [4]: 0.02 µM

NCCCNCCCCNC(=O)NCC(=O)NCCCCCCN=C(N)N
Survival (Mus musculus [11]): 42 days
Survival (Mus musculus [12]): 48 days
Survival (Rattus norvegicus): 12 days

CC(C)c1cccc(C(C)C)c1NC(=O)NCC1(c2cccc(N(C)C)c2)CCCC1
IC50 [13]: 0.063 µM

CCCCCn1cc(-c2cn(C34CC5CC(CC(C5)C3)C4)nn2)c(=O)c2cc(-c3ccco3)ccc21
Ki (Cannabinoid receptor 1): > 10 µM

CC(C)c1cccc(C(C)C)c1NC(=O)NCCCCCc1ccccc1
IC50 [13]: 0.017 µM

CS(=O)(=O)c1ccc(-c2cn(-c3ccc(Cl)c(-c4ccccn4)c3)nn2)c(Cl)c1
IC50 [5]: 40 µM
IC50 (HeLa): > 100 µM
IC50 (L1210): 82 µM
IC50 (CCRF-CEM): 50 µM
IC50 (HMEC-1): 9.6 µM

N=C(N)NCCCCCCNC(=O)COC(=O)NCCCCNCCCN
Survival (Mus musculus [11]): 46 days
Survival (Mus musculus [12]): 58 days
Survival (Rattus norvegicus): 54 days

O=C(OCc1ccc2c(c1)OCO2)c1ccc(Cl)c(Cl)c1
IC50 (MDA-MB-231): ≥ 200 µM

CCCCCn1cc(-c2nnc(C34CC5CC(CC(C5)C3)C4)o2)c(=O)c2cc(-c3ccco3)ccc21
Ratio Ki [14]: >1543
Ki (Cannabinoid receptor 2): 0.0065 µM
Ki (Cannabinoid receptor 1): > 10 µM

CN(C)CCCNC(=O)c1cc(NC(=O)c2cc(NC(=O)c3cc(NC=O)cn3C)cn2C)cn1C
Kapp [9]: 0.9 10^5/M
Kapp [10]: 150 10^5/M

CCCCCn1cc(-c2nc(C34CC5CC(CC(C5)C3)C4)no2)c(=O)c2cc(-c3ccco3)ccc21
Ratio Ki [14]: >82
Ki (Cannabinoid receptor 2): 0.0004 µM
Ki (Cannabinoid receptor 1): 0.033 µM

CCN(C(C)C)S(=O)(=O)CC[C@@H]1O[C@@H]1[C@H](Cc1ccccc1)NC(=O)[C@H](CC(C)(C)S(C)(=O)=O)NC(=O)c1ccc2ccccc2n1
IC50 [4]: 0.0066 µM

CC(C)(C)NS(=O)(=O)CC[C@@H]1O[C@@H]1[C@H](Cc1ccccc1)NOC(=O)CCC(=O)NC(=O)c1ccc2ccccc2n1
IC50 [4]: 0.03 µM

CN(C)CCCNC(=O)c1cc(NC(=O)c2cc(NC(=O)c3cc([N+](=O)[O-])cn3C)cn2C)cn1C
Kapp [9]: 3.5 10^5/M
Kapp [10]: 8.7 10^5/M

CC(C)(C)NC(=O)[C@@H]1C[C@@H]2CCCC[C@@H]2CN1C[C@@H](O)[C@H](Cc1ccccc1)NC(=O)[C@@H](NC(=O)c1ccc2ccccc2n1)[C@@H]1CCOC1
IC50 [7]: 0.00024 µM
IC95 [8]: 0.008 µM

CN(C)CCCNC(=O)c1cc(NC(=O)c2cc(/C=C/c3cc([N+](=O)[O-])cn3C)cn2C)cn1C
Kapp [9]: 7.4 10^5/M
Kapp [10]: 16.9 10^5/M

C=CC[C@H](C(=O)NO)[C@@H](CC(C)C)C(=O)N[C@H](C(=O)NC)C(C)(C)C
IC50 (Interstitial collagenase): 0.0011 µM
IC50 (Stromelysin-1): 0.01 µM
IC50 (Matrilysin): 0.011 µM
bioavailability [15]: 15%
IC50 [16]: 0.00085 µM
half-life [17]: 27 h

O=S(=O)(NCc1ccc2c(c1)OCO2)c1ccccc1
IC50 (MDA-MB-231): 14.2 µM

COc1cccc(OC)c1-c1ccc(C[C@H](N=C(NCC(F)(F)F)[C@@H]2CCN2S(=O)(=O)c2ccccc2)C(=O)O)cc1
IC50 (Integrin alpha-4/beta-1): 0.00013 µM

COc1cccc(OC)c1-c1ccc(C[C@H](N=C(N)[C@@H]2CCN2S(=O)(=O)c2ccccc2)C(=O)O)cc1
IC50 (Integrin alpha-4/beta-1): 0.0001 µM

CCCCCCCCCCCCCCCCCNC(=O)Nc1c(OC)cc(OC)cc1OC
IC50 [13]: 0.32 µM

N=C(N)NCCCCCCC(=O)NC(O)C(=O)NCCCCNCCCN (stereo unspecified)
Survival (Mus musculus [11]): 38 days
Survival (Mus musculus [12]): 57 days
Survival (Rattus norvegicus): 38 days

CC(C)C[C@H](NC(=O)[C@H](Cc1ccccc1)NC(=S)CNC(=O)CNC(=O)[C@@H](N)Cc1ccc(O)cc1)C(=O)O
Ki [6]: 0.047 µM

COc1ccc(C(=O)NCc2ccc3c(c2)OCO3)cc1
IC50 (MDA-MB-231): ≥ 200 µM

NC(=O)[C@H]1CS[C@@H]2C[C@@H](N3CC(=O)N4CCC[C@H]4C3=O)C(=O)N12
KiH [2]: 0.14 nM
KiL [2]: 183 nM
KiH [3]: 0.098 nM
KiL [3]: 171 nM

CC(C)C[C@H](NC(=O)[C@H](Cc1ccccc1)OC(=O)CNC(=O)CNC(=O)[C@@H](N)Cc1ccc(O)cc1)C(=O)O (H-YGG[PhLac]L-OH)
Ki [6]: 0.034 µM

NCCCNCCCCNC(=O)CC(=O)NCCCCCCN=C(N)N
Survival (Mus musculus [11]): 53 days
Survival (Mus musculus [12]): 52 days
Survival (Rattus norvegicus): 9 days

NC(=O)CN1CC[C@@H](N2CC(=O)N3CCC[C@H]3C2=O)C1=O
KiH [2]: 0.19 nM
KiL [2]: 50 nM
KiH [3]: 0.08 nM
KiL [3]: 69 nM

COC(=O)c1ccc(-c2cn(-c3cccc(-c4ccccc4)c3)nn2)cc1
IC50 [5]: 0.42 µM
IC50 (HeLa): 1.1 µM
IC50 (L1210): 1.1 µM
IC50 (CCRF-CEM): 0.92 µM
IC50 (HMEC-1): 0.62 µM

C=CC[C@H](C(=O)NO)[C@@H](CC(C)C)C(=O)N[C@@H](Cc1ccccc1)C(=O)c1c[nH]c2ccccc12
bioavailability [15]: 12%
half-life [17]: 20 h
